Reference: ChEMBL document CHEMBL1240318, “Developing a new resource for drug discovery: marine actinomycete bacteria” (2006)
Values after ≈ are worked out from the molar mass of the structure shown.

Assays:
Format in all cases: functional
SK-MEL-5 = experiment: Antitumor activity against human SK-MEL-5 cells; settings: read-out: LC50 (the source's name)
Enterococcus faecium = experiment: Antimicrobial activity against vancomycin-resistant Enterococcus faecium assessed as growth inhibition
Staphylococcus aureus = experiment: Antimicrobial activity against methicillin-resistant Staphylococcus aureus assessed as growth inhibition
Candida albicans = experiment: Antimicrobial activity against amphotericin-resistant Candida albicans

Structure (SMILES): C\C1=C/C=C/C=C/C=C/c2cccc(O)c2C(=O)O[C@@H](C[C@@H](C)O)C[C@@H](O)C/C=C/[C@@H](O)C[C@@H](O)CC(C)/C=C/C=C/C=C/C=C/c2cccc(O)c2C(=O)O[C@@H](C[C@@H](C)O)C[C@@H](O)C/C=C/[C@@H](O)C[C@@H](O)C1 (some centres undefined) [MARINOMYCIN A]
- CC50 (SK-MEL-5): 5 nM
- MIC (Enterococcus faecium): 0.1 µM (≈ 0.101 µg/mL)
- MIC (Staphylococcus aureus): 0.1 µM (≈ 0.101 µg/mL)
- MIC90 (Candida albicans): 7.8 µM (≈ 7.89 µg/mL)
